This is an account of results in paper PMC4152863 (Regulatory peptides, 2013).

The target of assay [1] is T1, novel, non-AT1, non-AT2 angiotensin binding site (neurolysin) (Rattus norvegicus, UniProt P42676). To be noted: cited from earlier work.
In assay [2] the target is T1, novel, non-AT1, non-AT2 angiotensin binding site (neurolysin). The assay is described as follows: Unmasking of specific 125I-SI Ang II binding in membranes.
For assay [3] the target is unchanged. The assay is described as follows: Inhibition or enhancement of PCMB-unmasked 125I-SI Ang II binding in membranes.
A further assay concerns neurolysin. To be noted: cited from earlier work.
The subject of the next assay is Sprague-Dawley rats. The assay is described as follows: Drinking test after icv Ang II with or without HgCl2. The format is in vivo, rat. To be noted: ICV 200 pmoles HgCl2 with 100 pmoles Ang II; water intake over 30 min.
Another assay deals with liver AT1 receptors (Rattus norvegicus, UniProt P25095). The format is binding. To be noted: for Kd of 125I-SI Ang II binding: liver.
Sequence of liver AT1 receptors (P25095 whole entry): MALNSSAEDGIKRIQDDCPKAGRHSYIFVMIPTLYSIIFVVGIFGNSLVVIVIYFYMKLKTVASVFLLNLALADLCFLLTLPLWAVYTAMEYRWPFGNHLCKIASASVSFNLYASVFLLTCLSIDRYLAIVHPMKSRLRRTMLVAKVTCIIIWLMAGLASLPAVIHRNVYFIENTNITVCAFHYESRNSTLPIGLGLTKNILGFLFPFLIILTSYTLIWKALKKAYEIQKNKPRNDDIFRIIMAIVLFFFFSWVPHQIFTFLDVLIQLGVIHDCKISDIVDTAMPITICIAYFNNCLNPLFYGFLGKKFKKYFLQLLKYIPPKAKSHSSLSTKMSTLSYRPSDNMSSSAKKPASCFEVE
The subject of a further assay is thimet oligopeptidase. To be noted: cited from earlier work.
Setting [4] is: brain and testis, ~100 μM primary screening or range of concentrations.
Setting [5] is: 100 μM test compound, 100 μM PCMB, brain and testis.

Molecules are shown by their SMILES. Where “and” joins values, the source holds several entries; their conditions need not be identical. Equal entries are not always repeated. Entries after “also recorded” stand apart in the source; their conditions may differ. Where two headings read alike, the source gives them in different places.

T1 sequence (P42676 38-704): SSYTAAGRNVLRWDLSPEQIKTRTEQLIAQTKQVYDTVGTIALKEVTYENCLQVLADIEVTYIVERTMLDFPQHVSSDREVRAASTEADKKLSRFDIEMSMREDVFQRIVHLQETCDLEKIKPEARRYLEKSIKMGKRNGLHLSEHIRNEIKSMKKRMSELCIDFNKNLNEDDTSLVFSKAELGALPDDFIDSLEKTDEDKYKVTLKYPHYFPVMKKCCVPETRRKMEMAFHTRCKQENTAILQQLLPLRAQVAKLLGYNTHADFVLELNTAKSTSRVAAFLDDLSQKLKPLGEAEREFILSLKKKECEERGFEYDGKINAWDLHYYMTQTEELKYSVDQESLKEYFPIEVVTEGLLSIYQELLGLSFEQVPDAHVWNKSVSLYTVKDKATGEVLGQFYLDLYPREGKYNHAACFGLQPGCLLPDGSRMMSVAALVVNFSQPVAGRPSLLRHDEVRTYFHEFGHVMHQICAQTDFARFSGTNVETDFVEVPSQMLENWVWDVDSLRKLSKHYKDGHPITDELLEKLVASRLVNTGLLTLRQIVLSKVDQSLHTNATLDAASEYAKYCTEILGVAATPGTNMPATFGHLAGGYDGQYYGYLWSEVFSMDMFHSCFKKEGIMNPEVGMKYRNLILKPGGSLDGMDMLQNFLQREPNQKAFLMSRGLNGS

Regarding `OCCS` [2-mercaptoethanol, 2-mercaptoethanol], the “reversal of PCMB unmasking of Ang II binding (in words)” value in assay [1] was “reversed”.
`O=C(O)c1ccc(O)cc1` [4-hydroxybenzoic acid]: the “unmasking of specific 125I-SI Ang II binding in the absence of PCMB (in words)” value (“unmasking … of PCMB (in words)” below) in assay [2] (setting [4]) is given as “did not promote”.
As for `O=C(O)c1cc[c]([Hg][OH])cc1` [4-hydroxymercuribenzoate, 4-hydroxymercuribenzoic acid], the “unmasking … of PCMB (in words)” value in assay [2] is reported as “unmasked non-AT1, non-AT2 binding independent of PCMB; also recorded: partial unmasking; also recorded: capable of fully unmasking”. Further, the “concentration for optimal (peak) unmasking of 125I-SI Ang II binding” value in assay [2] (brain and testis) was ~ 300 μM; in assay [2] (brain and testis, listed as 4-OH Hg bza) it was 300 µM. Further, the “inhibition of PCMB-unmasked 125I-SI Ang II binding, primary screening (in words)” value (“inhibition … primary screening (in words)” for short) in assay [3] is “moderately inhibited”.
In the case of `O=[N+]([O-])[O-].[Ag+]` [AgNO3, silver nitrate], the “inhibition … primary screening (in words)” value in assay [3] is listed as “significantly reduced; also recorded: substantially inhibited”. For the same molecule, in assay [3] (brain and testis, 100 μM PCMB), the “IC50's for inhibition of 125I-SI Ang II binding” value (“IC50's for inhibition” below) was 1000 to 20000 nM. The “IC50 for inhibition of 125I-SI Ang II binding” value (“IC50 for inhibition” for short) is 1770 nM in assay [3] (brain, 100 μM PCMB) and 21300 nM in assay [3] (testis, 100 μM PCMB).
`O[C@@H](CS)[C@@H](O)CS` [DTT]: in assay [1], the “reversal of PCMB unmasking of Ang II binding (in words)” value was “reversed”. In addition, the “inhibition of the enzymatic activity of neurolysin (in words)” value with neurolysin was “can be inhibited”.
As for `Cc1cc(-c2ccc(/N=N/c3ccc4c(S(=O)(=O)O)cc(S(=O)(=O)O)c(N)c4c3O)c(C)c2)ccc1/N=N/c1ccc2c(S(=O)(=O)O)cc(S(=O)(=O)O)c(N)c2c1O` [Evans blue], in assay [2] (setting [4]), the “unmasking … of PCMB (in words)” value is recorded as “unable to unmask”. Moreover, the “effect on 125I-SI Ang II binding in the presence of PCMB (in words)” value in assay [3] (100 μM, brain and testis) is on record as “enhanced”. The “Rmax for enhancement of specific 125I-SI Ang II binding in the presence of PCMB” value was 163±56% in assay [3] (brain, 100 μM PCMB) and 442±340% in assay [3] (testis, 100 μM PCMB).
Take `[Cl][Hg][Cl]` [HgCl2, mercuric chloride]: the “effect on dipsogenic response to Ang II (in words)” value with Sprague-Dawley rats is recorded as “lack of effect; also recorded: did not affect”. In addition, in assay [3], the “inhibition … primary screening (in words)” value is given as “significantly reduced; also recorded: substantially inhibited”. The “IC50's for inhibition” value in assay [3] (brain and testis, 100 μM PCMB) was in the range of 1000 to 20000 nM. Besides, the “IC50 for inhibition” value in assay [3] (brain, 100 μM PCMB) amounted to 14300 nM; in assay [3] (testis, 100 μM PCMB), 11000 nM. Also, on liver AT1 receptors, the “Bmax of 125I-SI Ang II binding” value is 20.8±1.8 and 20.6±2.4 and 20.4±4.4. Also, on liver AT1 receptors, the “effect on 125I-SI Ang II binding to AT1 receptors (in words)” value is “lack of effect; also recorded: did not impair”. The “Kd of 125I-SI Ang II binding” value on liver AT1 receptors (10 μM HgCl2) is reported as 2.93±0.40; at liver AT1 receptors (30 μM HgCl2), 2.41±0.46; at liver AT1 receptors (100 μM HgCl2) it was 3.15±1.1.
On to `O=C(O)c1cc[c]([Hg][Cl])cc1` [PCMB, parachloromercuribenzoic acid], for which, in the assay on thimet oligopeptidase, the “unmasking of Ang II binding to thimet oligopeptidase (in words)” value is given as “does not unmask”. In addition, in assay [2] (brain and testis), the “concentration for optimal (peak) unmasking of 125I-SI Ang II binding” value lay in the range of 100 to 300 µM.
With `O=[N+]([O-])[O-].[Na+]` [Sodium nitrate], the “inhibition … primary screening (in words)” value in assay [3] was “did not show any inhibition”.
For the molecule `NCCCNCCS` [WR-1065], the “inhibition … primary screening (in words)” value in assay [3] (setting [5]) is given as “did not inhibit”.
In the case of `NCCCNCCSP(=O)(O)O` [amifostine], in assay [3] (setting [5]), the “inhibition of PCMB unmasking of 125I-SI Ang II binding, primary screening” value (“inhibition of PCMB unmasking … primary screening” for short) was “more than 50%”. Further, the “inhibition in secondary screening” value in assay [3] (at or above 100 μM, 100 μM PCMB, data not shown) was under 50%.
With `NCCS` [cysteamine], the “inhibition of PCMB unmasking … primary screening” value in assay [3] (setting [5]) was “more than 50%”. Moreover, the “IC50 for inhibition” value in assay [3] (brain, 100 μM PCMB) turned out to be 28100 nM; in assay [3] (testis, 100 μM PCMB), 138000 nM.
With `OO` [hydrogen peroxide], the “inhibition … primary screening (in words)” value in assay [3] was “did not inhibit”.
Consider `[Cl][Mn][Cl]` [manganese chloride], for which the “unmasking … of PCMB (in words)” value in assay [2] is “greater unmasking in testis compared to brain”.
Regarding `COC([CH2][Hg+])CNC(=O)c1ccccc1OCC(=O)O.[OH-]` (stereo not shown) [mersalyl acid], the “unmasking of 125I-SI Ang II binding at concentrations up to 1 mM (in words)” value in assay [2] (brain and testis, absence of PCMB, data not shown) is given as “no ability to unmask; also recorded: did not unmask”. In addition, the “inhibition … primary screening (in words)” value in assay [3] is given as “full inhibition”. Moreover, the “inhibition of PCMB unmasking … primary screening” value in assay [3] (setting [5]) was “more than 50%”. Also, in assay [3] (brain and testis, 100 μM PCMB), the “IC50's for inhibition” value was 1000 to 20000 nM. For the same molecule, the “IC50 for inhibition” value in assay [3] (brain, 100 μM PCMB) was determined as 1100 nM; in assay [3] (testis, 100 μM PCMB) it was 2270 nM.
